From ChEMBL document CHEMBL1141611, “Truncation and non-natural amino acid substitution studies on HTLV-I protease hexapeptidic inhibitors” (Bioorg Med Chem Lett, 2008)
*1 amine or outer side, *2 acyl side, *3 side chain or, on linkers, in order; H or OH if unused. Where a SMILES comes first, the peptide text is derived from it. [ ]: non-standard residue; d: D form. X1 = O=C([C@@H](O)[C@H](Cc1ccccc1)N[*:1])[*:2]; Thz(5,5-Me2) = CC1(C)SCN[C@@H]1C(=O)O

What was measured:
[1] = molecular target: Protease (Human immunodeficiency virus 1) (UniProt Q9YQ12); experiment: Inhibition of HIV1 protease at 50 nM
Gag-Pro polyprotein = Gag-Pro polyprotein (Human T-cell leukemia virus 1 (strain Japan ATK-1 subtype A) (HTLV-1), UniProt P10274, L40I); experiment: Inhibition of HTLV1 protease L40I mutant expressed in Escherichia coli BL21(DE3)pLysS; set-up: species or system Human T-cell leukemia virus type I
Sequence of Gag-Pro polyprotein (P10274 450-574 L489I): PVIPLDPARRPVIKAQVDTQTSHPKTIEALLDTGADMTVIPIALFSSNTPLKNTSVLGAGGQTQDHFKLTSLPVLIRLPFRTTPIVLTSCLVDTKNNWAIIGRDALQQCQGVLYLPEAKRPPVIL

Sequence of Protease (Human immunodeficiency virus 1) (Q9YQ12 as listed by the source): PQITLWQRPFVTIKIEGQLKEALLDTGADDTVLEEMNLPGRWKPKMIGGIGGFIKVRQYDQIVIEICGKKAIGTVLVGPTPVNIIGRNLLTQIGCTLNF

CC[C@H](C)[C@H](NC(C)=O)C(=O)N[C@H](C(=O)N[C@H](Cc1ccccc1)[C@H](O)C(=O)N1CSC(C)(C)[C@@H]1C(=O)N[C@H](C(=O)N[C@@H](CCSC)C(N)=O)[C@@H](C)CC)[C@@H](C)CC
inhibition [1]: 73% | IC50 (Gag-Pro polyprotein): 180 nM

CC[C@H](C)[C@H](NC(=O)[C@@H]1N(C(=O)[C@@H](O)[C@H](Cc2ccccc2)NC(=O)[C@@H](NC(=O)[C@@H](NC(C)=O)[C@@H](C)CC)[C@@H](C)CC)CSC1(C)C)C(N)=O
inhibition [1]: 57% | IC50 (Gag-Pro polyprotein): 249 nM

CSCC[C@H](NC(=O)[C@@H](NC(=O)[C@H]1N(C(=O)[C@@H](O)[C@H](Cc2ccccc2)NC(=O)[C@@H](NC(=O)[C@H](CCC(N)=O)NC(=O)[C@@H]2CCCN2)C(C)C)CSC1(C)C)C(C)C)C(=O)N[C@@H](Cc1c[nH]cn1)C(=O)O (H-PQV[X1][Thz(5,5-Me2)]VMH-OH)
inhibition [1]: 58%

CC[C@H](C)[C@H](NC(=O)[C@@H](NC(C)=O)C(C)(C)C)C(=O)N[C@@H](Cc1ccccc1)[C@H](O)C(=O)N1CSC(C)(C)[C@@H]1C(=O)N[C@H](C(=O)N[C@@H](CCSC)C(N)=O)[C@@H](C)CC
inhibition [1]: 98% | IC50 (Gag-Pro polyprotein): 201 nM

CC(=O)N[C@H](C(=O)N[C@H](C(=O)N[C@@H](Cc1ccccc1)[C@H](O)C(=O)N1CSC(C)(C)C1C(=O)NCC(C)(C)C)C(C)(C)C)c1ccccc1 (some centres undefined)
inhibition [1]: 99% | IC50 (Gag-Pro polyprotein): 113 nM

CC[C@H](C)[C@H](NC(=O)[C@@H]1N(C(=O)[C@@H](O)[C@H](Cc2ccccc2)NC(=O)[C@@H](NC(=O)[C@@H](NC(C)=O)c2ccccc2)C(C)(C)C)CSC1(C)C)C(N)=O
inhibition [1]: 93% | IC50 (Gag-Pro polyprotein): 144 nM

CC[C@H](C)[C@H](NC(C)=O)C(=O)N[C@H](C(=O)N[C@@H](Cc1ccccc1)[C@H](O)C(=O)N1CSC(C)(C)[C@@H]1C(=O)N[C@H](C(=O)N[C@@H](C)C(N)=O)[C@@H](C)CC)[C@@H](C)CC
inhibition [1]: 82% | IC50 (Gag-Pro polyprotein): 160 nM

C=C(C)CNC(=O)C1N(C(=O)[C@@H](O)[C@H](Cc2ccccc2)NC(=O)[C@@H](NC(=O)[C@@H](NC(C)=O)c2ccccc2)C(C)(C)C)CSC1(C)C (some centres undefined)
inhibition [1]: > 99% | IC50 (Gag-Pro polyprotein): 140 nM

CC(=O)N[C@H](C(=O)N[C@H](C(=O)N[C@@H](Cc1ccccc1)[C@H](O)C(=O)N1CSC(C)(C)C1C(=O)NCC(C)C)C(C)(C)C)c1ccccc1 (some centres undefined)
inhibition [1]: > 99% | IC50 (Gag-Pro polyprotein): 107 nM

CSCC[C@H](NC(=O)[C@@H](NC(=O)[C@@H]1CCCN1C(=O)[C@@H](O)[C@H](Cc1ccccc1)NC(=O)[C@@H](NC(=O)[C@H](CCC(N)=O)NC(=O)[C@@H]1CCCN1)C(C)C)C(C)C)C(=O)N[C@@H](Cc1cnc[nH]1)C(=O)O (H-PQV[X1]PVMH-OH)
inhibition [1]: < 30% | IC50 (Gag-Pro polyprotein): 159 nM

CC[C@H](C)[C@H](NC(C)=O)C(=O)N[C@H](C(=O)N[C@@H](Cc1ccccc1)[C@H](O)C(=O)N1CSC(C)(C)[C@@H]1C(=O)N[C@H](C(=O)N[C@@H](Cc1ccccc1)C(N)=O)[C@@H](C)CC)[C@@H](C)CC
inhibition [1]: 98% | IC50 (Gag-Pro polyprotein): 95 nM

C=CCNC(=O)C1N(C(=O)[C@@H](O)[C@H](Cc2ccccc2)NC(=O)[C@@H](NC(=O)[C@@H](NC(C)=O)c2ccccc2)C(C)(C)C)CSC1(C)C (some centres undefined)
inhibition [1]: > 99% | IC50 (Gag-Pro polyprotein): 131 nM

CC[C@H](C)[C@H](NC(C)=O)C(=O)N[C@H](C(=O)N[C@@H](Cc1ccccc1)[C@H](O)C(=O)N1CSC(C)(C)[C@@H]1C(=O)N[C@H](C(=O)N[C@@H](CCSC)C(N)=O)c1ccccc1)[C@@H](C)CC
inhibition [1]: 86% | IC50 (Gag-Pro polyprotein): 123 nM

CSCC[C@H](NC(=O)[C@@H](NC(=O)[C@H]1N(C(=O)[C@@H](O)[C@H](Cc2ccccc2)NC(=O)[C@@H](NC(=O)[C@H](CCC(N)=O)NC(C)=O)C(C)C)CSC1(C)C)C(C)C)C(N)=O (Ac-QV[X1][Thz(5,5-Me2)]VM-NH2)
inhibition [1]: 96% | IC50 (Gag-Pro polyprotein): 353 nM

CC(=O)N[C@H](C(=O)N[C@H](C(=O)N[C@@H](Cc1ccccc1)[C@H](O)C(=O)N1CSC(C)(C)C1C(=O)NCC1CC1)C(C)(C)C)c1ccccc1 (some centres undefined)
inhibition [1]: 99% | IC50 (Gag-Pro polyprotein): 146 nM

CC[C@H](C)[C@H](NC(C)=O)C(=O)N[C@H](C(=O)N[C@@H](Cc1ccccc1)[C@H](O)C(=O)N1CSC(C)(C)[C@@H]1C(=O)N[C@H](C(=O)N[C@@H](CCSC)C(N)=O)[C@@H](C)CC)[C@@H](C)CC
inhibition [1]: 98% | IC50 (Gag-Pro polyprotein): 88 nM

CC[C@H](C)[C@H](NC(C)=O)C(=O)N[C@H](C(=O)N[C@@H](Cc1ccccc1)[C@H](O)C(=O)N1CSC(C)(C)[C@@H]1C(=O)N[C@H](C(=O)N[C@@H](CCSC)C(N)=O)[C@@H](C)CC)c1ccccc1
inhibition [1]: 88% | IC50 (Gag-Pro polyprotein): 320 nM

CC[C@H](C)[C@H](NC(C)=O)C(=O)N[C@@H](Cc1ccccc1)[C@H](O)C(=O)N1CSC(C)(C)[C@@H]1C(=O)N[C@H](C(=O)N[C@@H](CCSC)C(N)=O)[C@@H](C)CC
inhibition [1]: 89% | IC50 (Gag-Pro polyprotein): > 1000 nM

CC[C@H](C)[C@H](NC(=O)[C@@H](NC(C)=O)c1ccccc1)C(=O)N[C@@H](Cc1ccccc1)[C@H](O)C(=O)N1CSC(C)(C)[C@@H]1C(=O)N[C@H](C(=O)N[C@@H](CCSC)C(N)=O)[C@@H](C)CC
inhibition [1]: 98% | IC50 (Gag-Pro polyprotein): 102 nM

CC(=O)N[C@H](C(=O)N[C@H](C(=O)N[C@@H](Cc1ccccc1)[C@H](O)C(=O)N1CSC(C)(C)C1C(=O)NCc1ccccc1C)C(C)(C)C)c1ccccc1 (some centres undefined)
inhibition [1]: 99% | IC50 (Gag-Pro polyprotein): 103 nM

CC[C@H](C)[C@H](NC(=O)[C@@H]1N(C(=O)[C@@H](O)[C@H](Cc2ccccc2)NC(=O)[C@@H](NC(=O)[C@@H](NC(C)=O)c2ccccc2)C(C)(C)C)CSC1(C)C)C(=O)N[C@@H](CCSC)C(N)=O
inhibition [1]: 99% | IC50 (Gag-Pro polyprotein): 101 nM

CC(=O)N[C@H](C(=O)N[C@H](C(=O)N[C@@H](Cc1ccccc1)[C@H](O)C(=O)N1CSC(C)(C)C1C(=O)NCc1cccc(I)c1)C(C)(C)C)c1ccccc1 (some centres undefined)
inhibition [1]: 97% | IC50 (Gag-Pro polyprotein): 473 nM

CC[C@H](C)[C@H](NC(C)=O)C(=O)N[C@H](C(=O)N[C@@H](Cc1ccccc1)[C@H](O)C(=O)N1CSC(C)(C)[C@@H]1C(=O)N[C@H](C(=O)N[C@@H](CCSC)C(N)=O)C(C)(C)C)[C@@H](C)CC
inhibition [1]: 79% | IC50 (Gag-Pro polyprotein): 180 nM

CC[C@H](C)[C@H](NC(=O)[C@@H]1N(C(=O)[C@@H](O)[C@H](Cc2ccccc2)NC(=O)[C@@H](NC(=O)[C@@H](NC(C)=O)c2ccccc2)C(C)(C)C)CSC1(C)C)C(=O)N[C@@H](CCC(N)=O)C(N)=O
inhibition [1]: 98% | IC50 (Gag-Pro polyprotein): 84 nM

CCCNC(=O)C1N(C(=O)[C@@H](O)[C@H](Cc2ccccc2)NC(=O)[C@@H](NC(=O)[C@@H](NC(C)=O)c2ccccc2)C(C)(C)C)CSC1(C)C (some centres undefined)
inhibition [1]: 98% | IC50 (Gag-Pro polyprotein): 193 nM

CC[C@H](C)[C@H](NC(C)=O)C(=O)N[C@H](C(=O)N[C@@H](Cc1ccccc1)[C@H](O)C(=O)N1CSC(C)(C)[C@@H]1C(=O)N[C@H](C(=O)N[C@@H](CCSC)C(N)=O)[C@@H](C)CC)C(C)(C)C
inhibition [1]: 97% | IC50 (Gag-Pro polyprotein): 145 nM

CC[C@H](C)[C@H](NC(C)=O)C(=O)N[C@H](C(=O)N[C@@H](Cc1ccccc1)[C@H](O)C(=O)N1CSC(C)(C)[C@@H]1C(=O)N[C@H](C(=O)N[C@@H](CCC(N)=O)C(N)=O)[C@@H](C)CC)[C@@H](C)CC
inhibition [1]: 93% | IC50 (Gag-Pro polyprotein): 159 nM

CSCC[C@H](NC(=O)[C@@H](NC(=O)[C@H]1N(C(=O)[C@@H](O)[C@H](Cc2ccccc2)NC(=O)[C@@H](NC(=O)[C@H](CCC(N)=O)NC(=O)[C@@H]2CCCN2)C(C)C)CSC1(C)C)C(C)C)C(=O)N[C@@H](Cc1cnc[nH]1)C(=O)O (H-PQV[X1][Thz(5,5-Me2)]VMH-OH)
IC50 (Gag-Pro polyprotein): 152 nM
